The species entered for assay [1] is Mus musculus. Briefly: Effective concentration required for inhibition of interleukin-6 in mouse thioglycolate-elicited peritoneal exudate cell line using 62% radiolabeled Dexamethasone. Format: functional.
In a further assay the test system is A549. Briefly: Effective concentration for inhibition of interleukin-6 in human A549 lung carcinoma cell line using 75% radiolabeled Dexamethasone. Type of assay: functional, cell-based.
For another assay, the target named is T1, Glucocorticoid receptor (Homo sapiens, UniProt P04150).
T1 sequence (P04150 whole entry): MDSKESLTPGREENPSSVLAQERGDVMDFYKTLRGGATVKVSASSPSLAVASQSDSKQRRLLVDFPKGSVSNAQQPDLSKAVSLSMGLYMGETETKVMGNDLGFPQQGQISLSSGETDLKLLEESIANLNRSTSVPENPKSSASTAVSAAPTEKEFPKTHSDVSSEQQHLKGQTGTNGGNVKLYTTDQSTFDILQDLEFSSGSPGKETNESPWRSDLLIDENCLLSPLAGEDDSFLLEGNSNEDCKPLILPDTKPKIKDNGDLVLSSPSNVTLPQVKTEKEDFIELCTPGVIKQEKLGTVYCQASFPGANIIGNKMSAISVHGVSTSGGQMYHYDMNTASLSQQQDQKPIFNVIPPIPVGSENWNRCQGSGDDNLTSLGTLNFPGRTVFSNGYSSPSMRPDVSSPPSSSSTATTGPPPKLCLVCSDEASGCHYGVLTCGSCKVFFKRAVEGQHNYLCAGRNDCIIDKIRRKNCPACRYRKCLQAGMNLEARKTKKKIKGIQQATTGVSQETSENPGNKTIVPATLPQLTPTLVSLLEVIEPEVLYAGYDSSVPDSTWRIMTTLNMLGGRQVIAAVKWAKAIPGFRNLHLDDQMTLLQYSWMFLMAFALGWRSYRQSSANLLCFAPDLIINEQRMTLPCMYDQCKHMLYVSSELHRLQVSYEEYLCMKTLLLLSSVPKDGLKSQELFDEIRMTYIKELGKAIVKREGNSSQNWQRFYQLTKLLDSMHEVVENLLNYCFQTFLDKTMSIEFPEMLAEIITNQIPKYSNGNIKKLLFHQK
Put plainly: Inhibition of human glucocorticoid receptor alpha isoform.

Assay [2] is filed under the species Mus musculus. Put plainly: Effective concentration required for interleukin-6 transrepression in peritoneal exudate cells of C57B1/6 mouse using 62% Dexamethasone. Type of assay: functional, cell-based.
In assay [3] the test system is Mus musculus. Briefly: Inhibition of LPS induced TNF-alpha secretion in mouse at an oral dose of 30 mg/kg relative to that produced by Dexamethasone at a dose of 0.3 mg/kg. Format: functional.

Usually EC50 stands for the concentration at which the effect is half-maximal. A low value points to a more potent agent. A word on the IC50: it is the concentration at which inhibition is half-maximal. A low value points to greater potency in that assay. As a reminder, the Inhibition is how much of the control response was suppressed. Higher therefore signals a strong effect.

Consider `CC[C@H]1OC2(CCC3=Cc4c(cnn4-c4ccc(F)cc4)C[C@@]32C)O[C@@H]1CC`, for which the EC50 in the assay filed under Mus musculus [1] worked out at 36 nM; with A549, 24 nM; in the assay filed under Mus musculus [2] it was 36 nM. In addition, on Glucocorticoid receptor, the IC50 was 6.6 nM. The same compound showed an Inhibition in the assay on Mus musculus [3] of 97.8%.

For the origin of these results see ChEMBL document CHEMBL1139605, “Novel ketal ligands for the glucocorticoid receptor: in vitro and in vivo activity” (Bioorg Med Chem Lett, 2005).
